Measured values reported in patent US11034672B1, “Tyrosine kinase inhibitor compositions, methods of making and methods of use” (Black Diamond Therapeutics, Inc., priority 2018, dated 2021).

Key:
Type in all cases: cell-based
[1] = molecular target: T1, HER2 WT (Homo sapiens, UniProt P04626); assay: Activity for inhibiting HER2 (Table B), HER2 WT
[2] = molecular target: T2, EGFR WT (Homo sapiens, UniProt P00533); assay: Activity for inhibiting EGFR (Table A), EGFR WT; settings: read-out: EGFR WT, potency code (IC50)
[3] = molecular target: T2, EGFR WT; assay: BaF3 cell proliferation assay, EGFR WT (Table A); settings: potency code, 3 days, CellTiterGlo, read-out: EGFR WT (Activity for Inhibiting EGFR)
Method in brief: (§1)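 EC50 values come from proliferation of IL-3-independent BaF3 lines. These lines were made by two spin infections with retrovirus encoding each mutant, plus polybrene (8 μg/ml). They then underwent one week of 10 μg/ml blasticidin selection and were removed from IL-3.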

[4] = molecular target: T3, HER2 YVMA (Homo sapiens, UniProt P04626, INS775YVMA); assay: Activity for inhibiting HER2 (Table B), HER2 YVMA; settings: read-out: HER2 YVMA, potency code (IC50)
T3 construct: expressed in transfected cells; host or cells: BaF3 (murine pro-B)
Procedure: (§2) EC50 values were determined with the same application.

[5] = molecular target: T1, HER2 WT; assay: BaF3 cell proliferation assay, HER2 WT (Table B); settings: potency code, 3 days, CellTiterGlo, read-out: HER2 WT (Activity for Inhibiting HER2)
[6] = molecular target: T4, EGFR V3 (Homo sapiens, UniProt P00533, DELINS30-297G); assay: Activity for inhibiting EGFR (Table A), EGFR V3 (EGFR-Viii); settings: read-out: EGFR V3, potency code (IC50)
T4 construct: expressed in transfected cells; host or cells: BaF3 (murine pro-B), retroviral pMXs-IRES-Blasticidin

[7] = molecular target: T5, HER2 S310F (Homo sapiens, UniProt P04626, S310F); assay: Activity for inhibiting HER2 (Table B), HER2 S310F; settings: read-out: HER2 S310F, potency code (IC50)
T5 construct: expressed in transfected cells; host or cells: BaF3 (murine pro-B)
Procedure: as §2

[8] = molecular target: T4, EGFR V3; assay: BaF3 cell proliferation assay, EGFR V3 (Table A); settings: potency code, 3 days, CellTiterGlo, read-out: EGFR V3 (Activity for Inhibiting EGFR)
Method in brief: as §1

[9] = molecular target: T3, HER2 YVMA; assay: BaF3 cell proliferation assay, HER2 YVMA (Table B); settings: potency code, 3 days, CellTiterGlo, read-out: HER2 YVMA (Activity for Inhibiting HER2)
[10] = molecular target: T5, HER2 S310F; assay: BaF3 cell proliferation assay, HER2 S310F (Table B); settings: potency code, 3 days, CellTiterGlo, read-out: HER2 S310F (Activity for Inhibiting HER2)
[11] = Table B, read-out: HER2 WT, potency code (IC50)
[12] = text lists of compounds, read-out: IC50 value for inhibiting wild-type HER2

T5 sequence (P04626 23-1255 S310F): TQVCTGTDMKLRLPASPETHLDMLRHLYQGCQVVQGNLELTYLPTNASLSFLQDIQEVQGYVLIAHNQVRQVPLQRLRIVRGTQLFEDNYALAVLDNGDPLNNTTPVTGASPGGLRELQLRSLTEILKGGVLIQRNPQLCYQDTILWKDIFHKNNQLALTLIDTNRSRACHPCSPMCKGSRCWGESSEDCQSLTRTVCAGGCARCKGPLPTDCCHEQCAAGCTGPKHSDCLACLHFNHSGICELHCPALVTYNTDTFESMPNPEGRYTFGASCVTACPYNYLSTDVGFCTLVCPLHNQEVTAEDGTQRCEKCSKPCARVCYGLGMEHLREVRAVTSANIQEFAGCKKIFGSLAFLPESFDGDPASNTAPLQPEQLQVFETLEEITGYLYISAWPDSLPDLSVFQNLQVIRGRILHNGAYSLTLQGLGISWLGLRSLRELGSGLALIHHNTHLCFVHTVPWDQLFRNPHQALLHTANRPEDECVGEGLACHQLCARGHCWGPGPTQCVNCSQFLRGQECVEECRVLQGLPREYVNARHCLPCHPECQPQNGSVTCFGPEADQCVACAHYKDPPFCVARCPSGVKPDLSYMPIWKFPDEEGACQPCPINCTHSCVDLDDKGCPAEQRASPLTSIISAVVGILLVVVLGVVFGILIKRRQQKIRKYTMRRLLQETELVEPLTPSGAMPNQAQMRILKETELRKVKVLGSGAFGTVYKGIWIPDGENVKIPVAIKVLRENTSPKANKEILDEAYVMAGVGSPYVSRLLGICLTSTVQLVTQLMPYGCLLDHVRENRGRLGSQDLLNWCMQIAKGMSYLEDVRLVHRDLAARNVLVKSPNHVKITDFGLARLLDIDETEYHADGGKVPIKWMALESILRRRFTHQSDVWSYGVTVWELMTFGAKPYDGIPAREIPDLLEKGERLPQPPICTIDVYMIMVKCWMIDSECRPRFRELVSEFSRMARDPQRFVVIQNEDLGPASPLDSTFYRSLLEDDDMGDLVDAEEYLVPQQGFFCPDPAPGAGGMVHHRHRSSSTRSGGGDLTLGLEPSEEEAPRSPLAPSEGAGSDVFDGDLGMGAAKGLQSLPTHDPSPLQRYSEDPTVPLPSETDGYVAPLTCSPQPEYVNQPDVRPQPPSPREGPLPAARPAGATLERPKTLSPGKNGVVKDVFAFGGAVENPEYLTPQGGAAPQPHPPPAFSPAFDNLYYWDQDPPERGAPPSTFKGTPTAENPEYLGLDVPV
T4 sequence (P00533 with tags, fused parts or gaps DELINS30-297G): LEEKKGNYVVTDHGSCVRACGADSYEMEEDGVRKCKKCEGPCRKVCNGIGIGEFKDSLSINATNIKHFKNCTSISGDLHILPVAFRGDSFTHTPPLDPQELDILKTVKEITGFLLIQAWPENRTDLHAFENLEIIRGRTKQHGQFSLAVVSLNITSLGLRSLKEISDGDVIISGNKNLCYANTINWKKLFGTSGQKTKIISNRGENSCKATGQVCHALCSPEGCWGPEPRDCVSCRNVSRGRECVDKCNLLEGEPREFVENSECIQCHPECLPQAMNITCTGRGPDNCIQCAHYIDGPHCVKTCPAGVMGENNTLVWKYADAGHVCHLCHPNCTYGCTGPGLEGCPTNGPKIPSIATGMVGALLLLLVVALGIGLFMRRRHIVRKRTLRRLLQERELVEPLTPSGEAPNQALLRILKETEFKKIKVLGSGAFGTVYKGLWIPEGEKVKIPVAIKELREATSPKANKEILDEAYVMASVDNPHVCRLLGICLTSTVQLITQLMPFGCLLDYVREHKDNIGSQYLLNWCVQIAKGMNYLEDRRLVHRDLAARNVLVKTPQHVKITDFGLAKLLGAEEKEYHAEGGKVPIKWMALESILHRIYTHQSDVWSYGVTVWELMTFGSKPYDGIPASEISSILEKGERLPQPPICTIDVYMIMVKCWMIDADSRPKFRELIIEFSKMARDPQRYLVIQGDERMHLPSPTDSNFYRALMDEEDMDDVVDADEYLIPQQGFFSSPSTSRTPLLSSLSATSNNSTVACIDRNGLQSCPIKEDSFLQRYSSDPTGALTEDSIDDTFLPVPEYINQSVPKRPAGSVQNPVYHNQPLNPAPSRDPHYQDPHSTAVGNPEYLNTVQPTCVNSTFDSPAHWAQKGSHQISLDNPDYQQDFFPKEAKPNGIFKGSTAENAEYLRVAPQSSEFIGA
T3 sequence (P04626 with tags, fused parts or gaps INS775YVMA): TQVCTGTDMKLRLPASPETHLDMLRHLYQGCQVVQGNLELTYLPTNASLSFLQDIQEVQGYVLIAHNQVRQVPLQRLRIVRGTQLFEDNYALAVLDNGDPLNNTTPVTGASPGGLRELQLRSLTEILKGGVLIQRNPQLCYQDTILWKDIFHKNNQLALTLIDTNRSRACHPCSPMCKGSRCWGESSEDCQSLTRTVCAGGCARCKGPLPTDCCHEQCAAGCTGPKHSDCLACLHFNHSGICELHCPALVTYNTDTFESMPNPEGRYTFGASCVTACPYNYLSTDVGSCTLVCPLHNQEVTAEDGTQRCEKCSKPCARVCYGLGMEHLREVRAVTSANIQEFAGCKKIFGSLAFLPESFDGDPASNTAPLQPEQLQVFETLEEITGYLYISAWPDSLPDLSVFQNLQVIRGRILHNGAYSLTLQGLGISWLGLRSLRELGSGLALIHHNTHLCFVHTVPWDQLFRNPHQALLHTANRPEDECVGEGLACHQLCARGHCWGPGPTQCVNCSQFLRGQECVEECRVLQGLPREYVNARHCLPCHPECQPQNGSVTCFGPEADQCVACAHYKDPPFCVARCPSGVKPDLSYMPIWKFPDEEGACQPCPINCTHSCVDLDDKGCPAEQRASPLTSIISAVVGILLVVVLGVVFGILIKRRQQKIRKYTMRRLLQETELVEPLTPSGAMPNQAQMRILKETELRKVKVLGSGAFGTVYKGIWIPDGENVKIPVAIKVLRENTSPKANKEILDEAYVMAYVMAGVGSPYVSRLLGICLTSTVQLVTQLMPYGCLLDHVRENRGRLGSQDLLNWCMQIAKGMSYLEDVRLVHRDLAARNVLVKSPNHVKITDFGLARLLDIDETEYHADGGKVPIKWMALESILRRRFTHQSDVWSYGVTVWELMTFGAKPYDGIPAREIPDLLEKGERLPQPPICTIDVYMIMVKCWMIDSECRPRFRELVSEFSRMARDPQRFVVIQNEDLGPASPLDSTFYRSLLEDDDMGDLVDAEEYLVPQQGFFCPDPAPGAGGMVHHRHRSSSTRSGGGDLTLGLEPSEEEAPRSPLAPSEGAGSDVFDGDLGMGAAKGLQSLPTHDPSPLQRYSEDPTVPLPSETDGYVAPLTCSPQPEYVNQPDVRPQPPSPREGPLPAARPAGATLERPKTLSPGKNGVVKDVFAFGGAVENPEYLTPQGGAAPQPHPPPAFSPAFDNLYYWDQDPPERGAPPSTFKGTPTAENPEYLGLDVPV
T2 sequence (P00533 25-1210 N540K): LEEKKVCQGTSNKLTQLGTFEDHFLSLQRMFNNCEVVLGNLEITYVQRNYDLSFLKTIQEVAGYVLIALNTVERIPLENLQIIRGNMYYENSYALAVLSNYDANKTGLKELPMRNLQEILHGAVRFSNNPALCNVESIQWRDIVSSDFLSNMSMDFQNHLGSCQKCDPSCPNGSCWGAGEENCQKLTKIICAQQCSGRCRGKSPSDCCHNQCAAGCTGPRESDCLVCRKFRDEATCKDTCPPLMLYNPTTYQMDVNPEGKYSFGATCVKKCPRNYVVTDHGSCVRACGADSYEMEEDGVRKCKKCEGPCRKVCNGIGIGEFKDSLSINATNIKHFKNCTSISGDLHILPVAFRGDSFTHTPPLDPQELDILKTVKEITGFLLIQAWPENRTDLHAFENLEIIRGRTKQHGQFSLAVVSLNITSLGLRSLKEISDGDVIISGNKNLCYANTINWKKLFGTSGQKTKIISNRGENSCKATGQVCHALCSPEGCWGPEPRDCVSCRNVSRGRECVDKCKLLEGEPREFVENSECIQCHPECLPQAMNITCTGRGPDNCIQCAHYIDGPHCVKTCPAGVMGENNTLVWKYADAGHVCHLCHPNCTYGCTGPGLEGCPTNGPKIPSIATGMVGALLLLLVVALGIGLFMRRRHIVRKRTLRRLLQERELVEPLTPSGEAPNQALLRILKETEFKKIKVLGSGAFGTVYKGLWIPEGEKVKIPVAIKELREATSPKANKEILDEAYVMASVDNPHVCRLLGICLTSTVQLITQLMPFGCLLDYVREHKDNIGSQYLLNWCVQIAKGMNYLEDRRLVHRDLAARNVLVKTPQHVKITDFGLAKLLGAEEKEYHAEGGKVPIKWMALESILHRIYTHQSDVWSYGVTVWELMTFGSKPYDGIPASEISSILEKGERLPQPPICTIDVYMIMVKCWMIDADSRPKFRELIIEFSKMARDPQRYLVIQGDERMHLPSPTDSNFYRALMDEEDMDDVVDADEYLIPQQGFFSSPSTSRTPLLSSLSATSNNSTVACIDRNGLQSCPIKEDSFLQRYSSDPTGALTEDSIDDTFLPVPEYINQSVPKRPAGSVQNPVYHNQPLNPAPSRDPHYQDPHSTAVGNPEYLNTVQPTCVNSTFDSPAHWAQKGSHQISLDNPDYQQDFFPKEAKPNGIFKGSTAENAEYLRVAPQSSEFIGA

| IC50 [1, 11] [nM] | IC50 [1, 12] [nM] | IC50 [2] [nM] | IC50 [3] [nM] | IC50 [4] [nM] | IC50 [5] [nM] | IC50 [6] [nM] | IC50 [7] [nM] | IC50 [8] [nM] | IC50 [9] [nM] | IC50 [10] [nM] | Compound |
| --- | --- | --- | --- | --- | --- | --- | --- | --- | --- | --- | --- |
| 10 to 20 | ≤ 20 | > 1000 | > 1000 | 200 to 300 | 10 to 20 | 50 to 100 | 20 to 30 | 50 to 100 | 200 to 300 | 20 to 30 | C=CC(=O)Nc1cc2c(Nc3ccc(OCc4ccccn4)c(Cl)c3)ncnc2cc1OCCn1ccnc1 [compound 10] |
| 10 to 20 | ≤ 20 | 500 to 1000 | 500 to 1000 | 50 to 100 | 10 to 20 | 30 to 50 | 10 to 20 | 30 to 50 | 50 to 100 | 10 to 20 | C=CC(=O)Nc1cc2c(Nc3ccc(OCc4ccccn4)c(Cl)c3)ncnc2cc1OCCN1CC(F)C1 [compound 34] |
| < 5 | ≤ 5 |  | 300 to 500 | 100 to 200 | < 5 | 30 to 50 | 10 to 20 | 30 to 50 | 100 to 200 | 10 to 20 | C=CC(=O)Nc1cc2c(Nc3ccc(OCc4ccccn4)c(Cl)c3)ncnc2cc1OCCN1CCC(O)C1 (stereo not shown) [compound 30] |
| < 5 | ≤ 5 | 300 to 500 | 300 to 500 | 50 to 100 | < 5 | 20 to 30 | 10 to 20 | 20 to 30 | 50 to 100 | 10 to 20 | C=CC(=O)Nc1cc2c(Nc3ccc(OCc4ccccn4)c(Cl)c3)ncnc2cc1OCCN1CCC(OC)C1 (stereo not shown) [compound 29] |
| < 5 | ≤ 5 | 200 to 300 | 200 to 300 | 30 to 50 | < 5 | 20 to 30 | 20 to 30 | 20 to 30 | 30 to 50 | 20 to 30 | C=CC(=O)Nc1cc2c(Nc3ccc(OCc4ccccn4)c(Cl)c3)ncnc2cc1OC1CCN(C)C1 (stereo not shown) [compound 16] |
| 10 to 20 | ≤ 20 | 500 to 1000 | 500 to 1000 | 50 to 100 | 10 to 20 | 20 to 30 | 10 to 20 | 20 to 30 | 50 to 100 | 10 to 20 | C=CC(=O)Nc1cc2c(Nc3ccc(OCc4ccccn4)c(Cl)c3)ncnc2cc1C#CC(C)(C)N1CCN(C)CC1 [compound 65] |
| 100 to 200 |  | > 1000 | > 1000 |  | 100 to 200 | 100 to 200 | 100 to 200 | 100 to 200 |  | 100 to 200 | C=CC(=O)Nc1cc2c(Nc3ccc(OCc4cccc(C(F)(F)F)n4)c(Cl)c3)ncnc2cc1OCCN1CCOCC1 [compound 23] |
| 100 to 200 |  | > 1000 | > 1000 |  | 100 to 200 | 200 to 300 | 300 to 500 | 200 to 300 |  | 300 to 500 | C=CC(=O)Nc1cc2c(Nc3ccc(OCc4ccccn4)c(Cl)c3)ncnc2cc1N(C)C1CCN(C)C1 (stereo not shown) [compound 48] |
| 5 to 10 | ≤ 10 | 300 to 500 | 300 to 500 | 50 to 100 | 5 to 10 | 30 to 50 | 20 to 30 | 30 to 50 | 50 to 100 | 20 to 30 | C=CC(=O)Nc1cc2c(Nc3ccc(OCc4ccccn4)c(Cl)c3)ncnc2cc1OCCN1CC2(COC2)C1 [compound 38] |
| 50 to 100 |  | 300 to 500 | 300 to 500 |  | 50 to 100 | 100 to 200 | 300 to 500 | 100 to 200 |  | 300 to 500 | C=CC(=O)Nc1cc2c(Nc3ccc(OCc4ccccn4)c(Cl)c3)ncnc2cc1N1CC(N2CCOCC2)C1 [compound 44] |
| 10 to 20 | ≤ 20 | 500 to 1000 | 500 to 1000 |  | 10 to 20 | 50 to 100 | 100 to 200 | 50 to 100 |  | 100 to 200 | C=CC(=O)Nc1cc2c(Nc3ccc(OCc4ccccn4)cc3)ncnc2cc1OCCn1ccnc1 [compound 9] |
| 100 to 200 |  | > 1000 | > 1000 |  | 100 to 200 | 100 to 200 | 200 to 300 | 100 to 200 |  | 200 to 300 | C=CC(=O)Nc1cc2c(Nc3ccc(OCc4ccccn4)c(Cl)c3)ncnc2cc1N(C)CCN1CCOCC1 [compound 7] |
| 20 to 30 | ≤ 50 | 300 to 500 | 300 to 500 |  | 20 to 30 | 50 to 100 | 100 to 200 | 50 to 100 |  | 100 to 200 | C=CC(=O)Nc1cc2c(Nc3ccc(OCc4ccccn4)c(Cl)c3)ncnc2cc1N1CCC2(CCN(C)C2)C1 (stereo not shown) [compound 46] |
| 5 to 10 | ≤ 10 | 300 to 500 | 300 to 500 | 50 to 100 | 5 to 10 | 20 to 30 | 20 to 30 | 20 to 30 | 50 to 100 | 20 to 30 | C=CC(=O)Nc1cc2c(Nc3ccc(OCc4ccccn4)c(Cl)c3)ncnc2cc1O[C@H]1CCN(C)C1 [compound 18] |
| 20 to 30 | ≤ 50 | 200 to 300 | 200 to 300 |  | 20 to 30 | 50 to 100 | 50 to 100 | 50 to 100 |  | 50 to 100 | CC#CC(=O)Nc1cc2c(Nc3ccc(OCc4ccccn4)c(Cl)c3)ncnc2cc1N(C)CCN1CCOCC1 [compound 4] |
| < 5 | ≤ 5 | 300 to 500 | 300 to 500 | 50 to 100 | < 5 | 20 to 30 | 10 to 20 | 20 to 30 | 50 to 100 | 10 to 20 | C=CC(=O)Nc1cc2c(Nc3ccc(OCc4ccccn4)c(Cl)c3)ncnc2cc1OCCN(C)CC [compound 32] |
| 30 to 50 | ≤ 50 | 300 to 500 | 300 to 500 |  | 30 to 50 | 30 to 50 | 100 to 200 | 30 to 50 |  | 100 to 200 | C=CC(=O)Nc1cc2c(Nc3ccc(OCc4ccccn4)cc3F)ncnc2cc1OC1CCN(C)C1 (stereo not shown) [compound 59] |
| 5 to 10 | ≤ 10 | 100 to 200 | 100 to 200 | 50 to 100 | 5 to 10 | 20 to 30 | 10 to 20 | 20 to 30 | 50 to 100 | 10 to 20 | CC#CC(=O)Nc1cc2c(Nc3ccc(OCc4ccccn4)c(Cl)c3)ncnc2cc1OC1CCN(C)C1 (stereo not shown) [compound 67] |
| 50 to 100 |  | 500 to 1000 | 500 to 1000 |  | 50 to 100 | 100 to 200 | 100 to 200 | 100 to 200 |  | 100 to 200 | C=CC(=O)Nc1cc2c(Nc3ccc(OCc4ccccn4)c(Cl)c3)ncnc2cc1N(C)CCCN1CCOCC1 [compound 12] |
| 10 to 20 | ≤ 20 | 300 to 500 | 300 to 500 |  | 10 to 20 | 30 to 50 | 20 to 30 | 30 to 50 |  | 20 to 30 | C=CC(=O)Nc1cc2c(Nc3ccc(OCc4cccc(F)c4)c(Cl)c3)ncnc2cc1OCCCN1CCOCC1 [compound 3] |

| Compound | IC50 [1, 11] [nM] | IC50 [1, 12] [nM] | IC50 [2] [nM] | IC50 [3] [nM] | IC50 [4] [nM] | IC50 [5] [nM] | IC50 [6] [nM] | IC50 [7] [nM] | IC50 [8] [nM] | IC50 [9] [nM] | IC50 [10] [nM] |
| --- | --- | --- | --- | --- | --- | --- | --- | --- | --- | --- | --- |
| C=CC(=O)Nc1cc2c(Nc3ccc(OCc4cccc(F)c4)c(Cl)c3)ncnc2cc1N(C)CCN1CCOCC1 [compound 2] | 100 to 200 |  | > 1000 | > 1000 |  | 100 to 200 | 50 to 100 | 300 to 500 | 50 to 100 |  | 300 to 500 |
